Measured values taken from article PMC4077438, “Biantennary oligoglycines and glyco-oligoglycines self-associating in aqueous medium” (Beilstein Journal of Organic Chemistry, 2014).
Marks after values point to notes of the source that are not given here.

How the values were obtained:
[1] = association (tectomer formation) on mica surface by scanning force microscopy (SFM); assay type: physicochemical; conditions: 0.1 mg/mL; for tectomer layer height on mica: рН 6.5, tapping mode in air
[2] = association in aqueous solution by dynamic light scattering (DLS); assay type: physicochemical
[3] = test system: influenza virus A/H1N1/NIB23; test: fetuin binding inhibition test (FBI-test), influenza virus receptor binding inhibition assay
[4] = test system: influenza virus A/Н3N2/29/90; test: as above
[5] = test system: influenza virus A/H5N2; assay type: binding
[6] = FBI-test, value in parentheses for monomeric sialoside

In the case of Н-Gly5-NH(СН2)2NH-Gly5-Н, the “tectomer layer height on mica” value [1] is reported as 3.3 nm and the “planar dimensions of islet-like tectomers on mica” value ([1]; рН 6.5, texp = 10 min, tapping mode in air) is reported as 500–700 nm.
In the case of Н-Gly4NH(СН2)10NHGly4-Н, the “tectomer layer height on mica” value [1] is reported as 3.7–4.0 nm and the “size of associates stable in aqueous media” value ([2]; neutral and basic media (рН 6.5 and 8.5, after NaHCO3 or Na2CO3), concentration ≤0.1 mg/mL) is reported as 800–1200 nm.
`CC(=O)N[C@H]1[C@H]([C@H](O)[C@H](O)CO)O[C@](OC[C@H]2O[C@@H](O[C@H]3[C@H](O)[C@@H](NC(C)=O)C(O)O[C@@H]3CO)[C@H](O)[C@@H](O)[C@H]2O)(C(=O)O)C[C@@H]1O` (some centres unmarked) [6’SLN, Neu5Acα2-6Galβ1-4GlcNAcβ] showed an IC50 [3, 6] of 150 µM and a Relative activity ([3]; inhibition of binding of fetuin peroxidase conjugate to immobilized virus, related to monomer 6’SLN = 1) of 1.
With `CC(=O)N[C@H]1[C@H]([C@H](O)[C@H](O)CO)O[C@@](OCc2ccccc2)(C(=O)O)C[C@@H]1O` [Neu5AcαOBn] the IC50 [4, 6] was 150 µM and the Relative activity ([4]; inhibition of binding of fetuin peroxidase conjugate to virus immobilized on plastic, related to monomer Neu5AcαOBn = 1) was 1.
In the case of Н-Gly4NH(СН2)10NHGly4-Н·2HCl, the “concentration at which the peptide associates in acidic solution” value ([2]; aqueous solution, рН < 5) is reported as at least 0.5 mg/mL.
With `CC(=O)N[C@H]1[C@H]([C@H](O)[C@H](O)CO)O[C@@](O[C@H]2[C@@H](O)[C@@H](CO)O[C@@H](O[C@H]3[C@H](O)[C@@H](O)[C@H](O)O[C@@H]3CO)[C@@H]2O)(C(=O)O)C[C@@H]1O` [3’SL, Neu5Acα2-3Galβ1-4Glcβ] the IC50 [5] was 150 µM and the Relative activity [5] was 1(150)^b.
